Source: patent US4514403A, “Hydrouracil compounds” (Yoshitomi Pharmaceutical Industries Ltd., priority 1980, dated 1985)
Structures can show the parent of a compound that is named as a salt.

Experiments:
Electric stimuli test = conditions: Mus musculus, read-out: Electric Stimuli Test ED50
[1] = Analgesic activity (overall)
Method: (§1) Phenylquinone writhing test, electric stimuli test, tooth pulp nociception test, hot plate test and AgNO3 arthritis test were performed according to the methods described by Y. Marayama et al. in "Arzneimittel-Forschung", 28 (11), 2102-2107 (1978), and bradykinin nociception test was performed by the method described by G. F. Blane in "Journal of Pharmacy and Pharmacology", 19, 367-373 (1967).

[2] = Bradykinin nociception test; conditions: for ED50: Rattus norvegicus, read-out: Bradykinin Nociception Test ED50
in vivo = conditions: rat
[3] = tested on: evoked potentials in central nervous system; assay: Effect on the various evoked potentials in central nervous system; format: in vivo, Male Wistar rats; parameters: key to Amplitude of Evoked Responses, VP-COR / Amplitude of Evoked Responses, HIP-AMY / Amplitude of Evoked Responses, HIP-SEP: -: No change; --: No change; (+): Levallorphan antagonism; (-): Levallorphan antagonism
Method: Male Wistar rats, weighing 300-350 g, were used under ethyl ether anesthesia. The trachea and femoral vein were cannulated for artificial respiration and drug injection, respectively. Immobilization of the rat was maintained by gallamine thioethiodide (10 mg/kg) given intravenously every one hours. All wound edges were infiltration with carbocaine hydrochloride. The experiments began after at least 2 hours had elapsed from discontinuance of ether anesthesia. The COR (somatosensory cortex) evoked potentials by VP (neucleus ventralis posterior thalamus) stimulation (VP - COR evoked potential) were recorded from somatosensory cortex, through a silver electrode applied directly to the cortex. In order to record VP and MRF (midbrain reticular formation) evoked potentials by sciatic nerve stimulation or AMY (amygdala) and SEP (septum) evoked potentials by HIP (hippocampus) stimulation, bipolar stainless steel electrodes were stereotaxically placed into the VP, MRF, AMY, SEP and HIP. The stimuli were delivered to various sites every 2 seconds from a stimulation and consisted of 0.1 msec rectangular pulses (twice threshold intensity). The evoked responses were visualized on an oscilloscope. All records were made up of 20 superimposed tracings.

[4] = Phenylquinone writhing test; conditions: for ED50: Mus musculus, read-out: Phenylquinone Writhing Test ED50
Method: as §1

[5] = Tooth pulp nociception test
Method: as §1

[6] = rat, in vivo
central nervous system = assay: Activity on central nervous system; conditions: in vivo
Tolerance test = format: in vivo; conditions: continuous administration
Hot plate test = conditions: Rattus norvegicus, sc, read-out: Hot Plate Test ED50
Method: as §1

[7] = rat, in vivo; remark: listed apart in the source
Mouse jumping test = conditions: administration at a lethal dose
[8] = Antagonism by levallorphan in electric stimuli test; conditions: electric stimuli test in mice; levallorphan (narcotic antagonist)
[9] = calculated from inhibition (%) in a low dose

CN1C(=O)CCN(C2CCN(CC=Cc3ccccc3)CC2)C1=O [Test compound A, 1-(1-cinnamyl-4-piperidyl)-3-methyl-hydrouracil hydrochloride]
ED50 (Electric stimuli test; po): 200 mg/kg | ED50 (Electric stimuli test; sc): 23 mg/kg | analgesic activity in a low dose [1]: stronger than tramadol and pentazocine | ED50 ([2]; po): 40 mg/kg | ED50 ([2]; sc): 4 mg/kg | Relative potency (Test compound A = 1), Bradykinin Nociception Test ([2]; calculated from ED50): 1 | Relative potency (Test compound A = 1), Bradykinin Nociception Test [2, 9]: 1 | Inhibition (%) of Occurrence of Pain ([2]; rats, 2.5 mg/kg s.c.): 38% | LD50 (in vivo; ip): 150 mg/kg | LD50 (in vivo; po): 450 mg/kg | LD50 (in vivo; sc): 300 mg/kg | levallorphan antagonism of VP - COR response [3]: levallorphan did not antagonize the response | Amplitude of Evoked Responses, HIP-AMY ([3]; 5 mg/kg i.v.): -- | Amplitude of Evoked Responses, HIP-SEP ([3]; 5 mg/kg i.v.): -- | Amplitude of Evoked Responses, VP-COR ([3]; 5 mg/kg i.v.): -- | Amplitude of Evoked Responses, HIP-AMY ([3]; 10 mg/kg i.v.): -- | Amplitude of Evoked Responses, HIP-SEP ([3]; 10 mg/kg i.v.): -- | Amplitude of Evoked Responses, HIP-AMY ([3]; 25 mg/kg i.v.): -- | Amplitude of Evoked Responses, HIP-SEP ([3]; 25 mg/kg i.v.): -- | HIP - AMY evoked potential ([3]; i.v.): no effect | HIP - SEP evoked potential ([3]; i.v.): no effect | amplitude of the VP - COR evoked potential ([3]; i.v.): reduced the amplitude of the VP - COR evoked potential | ED50 ([4]; po): 17 mg/kg | ED50 ([4]; sc): 1 mg/kg | Relative potency (Test compound A = 1), Phenylquinone Writhing Test ([4]; calculated from ED50): 1 | Relative potency (Test compound A = 1), Phenylquinone Writhing Test [4, 9]: 1 | Inhibition (%) of Occurrence of Pain ([4]; mice, 0.5 mg/kg s.c.): 48% | Relative potency (Test compound A = 1), Tooth Pulp Nociception Test ([5]; calculated from ED50): 1 | Relative potency (Test compound A = 1), Tooth Pulp Nociception Test [5, 9]: 1 | increasing rate in threshold ([5]; rabbits, 2.5 mg/kg i.v.): 75% | compensatory adjustment against codeine [6]: had not compensatory adjustment against codeine | muscle relaxant activity (central nervous system): weak | reserpine potentiating activity (central nervous system): weak | suppression of spontaneous locomotor activity (central nervous system): weak | cross tolerance against codeine (Tolerance test): did not show a cross tolerance against codeine | tolerance (decrease of effects) (Tolerance test): did not cause a significant decrease of effects | ED50 (Hot plate test): 10 mg/kg | ED50 (AgNO3 arthritis test; Rattus norvegicus, sc, read-out: AgNO3 Arthritis Test ED50): 7 mg/kg | Relative potency (Test compound A = 1), AgNO3 Arthritis Test (AgNO3 arthritis test; calculated from ED50): 1 | Relative potency (Test compound A = 1), AgNO3 Arthritis Test (AgNO3 arthritis test; [9]): 1 | Inhibition (%) of Occurrence of Pain (AgNO3 arthritis test; rats, 5 mg/kg s.c.): 42% | body weight reduction [7]: not reduced | jumping symptom (Mouse jumping test): did not cause any jumping symptom | Influence of levallorphan on analgesic activity [8]: did not influence the analgesic activity
